The text below walks through data of patent US11229654B2, “Combination therapy of tetracyclic quinolone analogs for treating cancer” (Senhwa Biosciences, Inc., priority 2015, dated 2022).

Like-named read-outs stand apart in the source and are kept apart here.

One experiment deals with Toledo cell. The experiment in a line: Anti-proliferation assay (MTS), Toledo cells. In kind it is cell-based, human. As to conditions: for IC50 / Estimated IC25: single drug treatment, 96 hours post-treatment; for IC50: read-out: Estimated IC50. The procedure:
(§1) Three human Lymphoma cell lines Toledo, MC116 and HT were purchased from the Bioresource Collection and Research Center (BCRC, Taiwan). All cells were incubated in a humidified atmosphere containing 5% C02 at 37° C.
(§2) CAL-101, also known as Idelalisib, is a PI3K-delta inhibitor with potential immunomodulating and antineoplastic activities. Anticancer activity of the combination of Compound A and CAL-101 on three human Lymphoma cell lines (Toledo, MC116, HT) was assessed using in vitro cell proliferation assay. Cell proliferation of drug-treated human cancer cells was determined at 96 hours post-treatment using the MTS (Promega) colorimetric assay.
(§3) Corrected absorbance values were obtained by subtracting the average 490 nm absorbance of the control wells (medium only, no cell) from all other absorbance values. Percentage inhibition of cell growth for compound treatment was calculated using this formula: […]
(§4) The sigmoidal dose-response curve is generated by fitting the percentage inhibition value as a function of logarithm of compound concentrations using GraphPad Prism software. IC50 values are defined as the concentration needed for a 50% inhibition of cell growth. […] All data represent the results of triplicate experiments.
(§5) Estimated IC50 and IC25 values were calculated based on non-linear regression of the dose-response curves of the cell proliferation ratio (%) as a function of logarithm of drug concentrations in single treatments.

For the next experiment, the system named is MC116 cell. Nature of the experiment: Anti-proliferation assay (MTS), MC116 cells. It counts as cell-based, human. The procedure: as §1, §2, §3, §4, §5
Another experiment has as its system HT cell. Nature of the experiment: Anti-proliferation assay (MTS), HT cells. In kind it is cell-based, human. The method, then: as §1, §2, §3, §4, §5
Experiment [1] concerns BRCA1 negative (UWB1.289-2945) human ovarian cancer cell line. Nature of the experiment: CellTiter-Glo cell viability assay, BRCA1 negative ovarian cancer cells. In kind it is cell-based. As to conditions: for Cell toxicity of cytokine by itself: 0-5 ng/mL, BRCA1 negative ovarian cancer cell line; for Effect on cell toxicity in the presence of Compound A: cytokine 0-5 ng/mL together with Compound A. The method, then:
(§6) BRCA1 negative (UWB1.289-2945) and BRCA1 positive (UWB1.289) human ovarian cancer cell lines were purchased from the American Type Culture Collection (ATCC). Those cell were incubated in a humidified atmosphere containing 5% C02 at 37° C.
(§7) The anticancer activity of Compound A on BRCA1 negative and BRCA1 positive human ovarian cancer cell lines were also assessed using in vitro cell proliferation assay. Cell proliferation of drug-treated human cancer cell was determined at 72 hours post-treatment using the CellTiter-Glo® Luminescent cell viability assay (Promega). IC50 values are defined as the concentration needed for a 50% inhibition of cell growth and were calculated in GraphPad. The anti-proliferative effects of Compound A alone and in combination with cytokines on these two cell lines are shown in FIGS. 4-6.
(§8) Percentage inhibition of cell growth for compound treatment was calculated using this formula: […]
(§9) The data were processed using built-in excel-macro. Cell viability/proliferation was expressed as […] with respect to the average signal from the untreated control wells of the respective plate. Out-liar values (of the triplicate) were rejected during QC. The processed data were plotted using Graphpad software. Statistical analysis was done using Excel (Microsoft) and Pair-wise comparison of two groups was made using the student's t test. All data represent the results of triplicate experiments.
(§10) Here, two types of cytokines, TNF-α and IFN-γ, were used (0, 0.008, 0.04, 0.2, 1, 5 ng/mL) in response to together with Compound A.
A general note: ATP-based viability assays read luminescence as a measure of living cells.

Experiment [2] concerns BRCA1 positive (UWB1.289) human ovarian cancer cell line. Nature of the experiment: CellTiter-Glo cell viability assay, BRCA1 positive ovarian cancer cells. The settings on record: for Cell toxicity of cytokine by itself: 0-5 ng/mL, BRCA1 positive ovarian cancer cell line. In kind it is cell-based. The method, then: as §6, §7, §8, §9, §10
Experiment [3] relates to HBCx-39 (BRCA2 wild type) cancer cell line. The experiment in a line: Chemokine expression in BRCA2 wild type cancer cells. In kind it is cell-based. The text has this: (§11) FIG. 8A-8C show effects of Compound A treatment on chemokine expressions in BRCA2 wild type (WT) and mutant (Mut) PDX-derived breast cancer cells.
(§12) Compound A was applied to both HBCx-39 (BRCA2 wild type) and HBCx-17 (BRCA2 mutant) cancer cell lines in vitro. HBCx-17 is a homologous recombination deficiency tumor cell line having BRCA2 mutation. […] CCL21 and CXCL9 mRNA expression in cancer cells having BRCA2 mutant compared to wild type cancer cells.

For experiment [4], the system named is HBCx-17 (BRCA2 mutant) cancer cell line. Nature of the experiment: Chemokine expression in BRCA2 mutant cancer cells. It counts as cell-based.
Text: as §11, §12

The mark [5] stands for this setting: Homo sapiens, single drug treatment, 96 hours post-treatment, read-out: Estimated IC50.
The mark [6] stands for this setting: single drug treatment, 96 hours post-treatment.
[7] abbreviates: Homo sapiens, single treatment, read-out: IC50.

The IC50 is the concentration that gives 50% inhibition. Turning to `Cc1cnc(CNC(=O)c2c(=O)c3ccc(N4CCCN(C)CC4)nc3n3c2sc2ccccc23)cn1` [Compound A, 2-(4-Methyl-[1,4]diazepan-1-yl)-5-oxo-5H-7-thia-1,11b-diaza-benzo[c]fluorene-6-carboxylic acid (5-methyl-pyrazin-2-ylmethyl)-amide], the IC50 in the experiment on Toledo cell (Homo sapiens) was 45.9 nM; in the experiment on MC116 cell (setting [5]) it was 0.723 µM; with HT cell (setting [5]) it was 0.525 µM; in experiment [1] (Homo sapiens, BRCA1 negative cells, 72 hours post-treatment), 2.34 to 3.78 nM. Moreover, the “Inhibition (%)” value with Toledo cell (IC50 conc. used: Compound A 50 nM, CAL-101 400 nM) is on record as 25.6 ± 2.5%; in the experiment with MC116 cell (IC25 conc. used: Compound A 150 nM, CAL-101 17500 nM), 44.3 ± 5.5%; with MC116 cell (IC50 conc. used: Compound A 450 nM, CAL-101 35000 nM), 83.4 ± 1.2%; with HT cell (IC25 conc. used: Compound A 133.3 nM, CAL-101 2666.7 nM) it was 15.2 ± 0.9%; in the experiment on HT cell (IC50 conc. used: Compound A 400 nM, CAL-101 8000 nM), 41.2 ± 1.9%. Further, the figures for the “Estimated IC25” value in the experiment on Toledo cell, with MC116 cell (setting [6]) and in the experiment with HT cell (setting [6]) were 15.3 ± 0.8 nM, 0.241 ± 0.0065 µM and 175.1 ± 6.6 nM, respectively. The Maximum toxicity in experiment [2] (BRCA1 positive UWB1.289, highest concentration (100 nM), 72 hours) is not above 40%. In addition, the “Production of chemokines in tumor cells” value in experiment [3] and in experiment [4] (HBCx-17 BRCA2 mutant) was “capable of inducing the production of several important chemokines” in each case. For the same compound, the “CCL9, CCL21 and CXCL9 mRNA expression” value in experiment [4] (BRCA2 mutant compared to wild type cancer cells) was “increased more”.

The inhibition is the change of the read-out against control, counted positive when it falls. In the case of `CC[C@H](Nc1ncnc2[nH]cnc12)c1nc2cccc(F)c2c(=O)n1-c1ccccc1` [CAL-101], the inhibition at 0.4 µM in the experiment on Toledo cell (Homo sapiens, IC50 conc. used: Compound A 50 nM, CAL-101 400 nM) is 49.6 ± 1.7%. The IC50 is 76 nM with Toledo cell (Homo sapiens); 118 ± 29.6 µM with MC116 cell (setting [5]); more than 10 µM in the experiment with MC116 cell (setting [7]); 10.1 ± 1.38 µM in the experiment with HT cell (setting [5]); more than 10 µM in the experiment on HT cell (setting [7]). Also, the entries for the “Estimated IC25” value in the experiment on Toledo cell, in the experiment with MC116 cell (setting [6]) and in the experiment on HT cell (setting [6]) were 25.3 ± 14.9 nM, 39.2867 ± 9.8712 µM and 3357.3 ± 461.0 nM, respectively. For the same compound, the inhibition at 17.5 µM with MC116 cell (Homo sapiens, IC25 conc. used: Compound A 150 nM, CAL-101 17500 nM) was 9.2 ± 3.4%. For the same compound, in the experiment with MC116 cell (Homo sapiens, IC50 conc. used: Compound A 450 nM, CAL-101 35000 nM), the inhibition at 35 µM amounted to 70.4 ± 3.1%. Moreover, the inhibition at 2.6667 µM in the experiment with HT cell (Homo sapiens, IC25 conc. used: Compound A 133.3 nM, CAL-101 2666.7 nM) is 19.7 ± 4.3%. Besides, the inhibition at 8 µM in the experiment with HT cell (Homo sapiens, IC50 conc. used: Compound A 400 nM, CAL-101 8000 nM) was found to be 37.6 ± 1.5%.

As for TNF-α, the “Cell toxicity of cytokine by itself” value in experiment [1] is “minimal, but increasing trend of cell toxicity with increasing dose”; in experiment [2], “minimal, but increasing trend of cell toxicity with increasing dose”. For the same compound, the “Effect on cell toxicity in the presence of Compound A” value in experiment [1] (BRCA1 negative cells) is recorded as “additive effect”.

On to IFN-γ: cytokine, Interferon gamma, for which the “Cell toxicity of cytokine by itself” value in experiment [1] is “minimal, but increasing trend of cell toxicity with increasing dose”; in experiment [2], “minimal, but increasing trend of cell toxicity with increasing dose”. For the same compound, the “Effect on cell toxicity in the presence of Compound A” value in experiment [1] (BRCA1 negative cells) is “additive effect”.
